Results from PMC6668346 (Journal of medicinal chemistry, 2018).
Values joined by “and” are separate entries in the source; they are usually repeats but may differ in a detail not shown here. Equal entries are not always repeated.

target: T1, human LAT1 (Homo sapiens, UniProt Q01650); assay: not given; assay type: cell-based; conditions: 200 μM, 3 min; average of seven experiments
T1 sequence (Q01650 whole entry): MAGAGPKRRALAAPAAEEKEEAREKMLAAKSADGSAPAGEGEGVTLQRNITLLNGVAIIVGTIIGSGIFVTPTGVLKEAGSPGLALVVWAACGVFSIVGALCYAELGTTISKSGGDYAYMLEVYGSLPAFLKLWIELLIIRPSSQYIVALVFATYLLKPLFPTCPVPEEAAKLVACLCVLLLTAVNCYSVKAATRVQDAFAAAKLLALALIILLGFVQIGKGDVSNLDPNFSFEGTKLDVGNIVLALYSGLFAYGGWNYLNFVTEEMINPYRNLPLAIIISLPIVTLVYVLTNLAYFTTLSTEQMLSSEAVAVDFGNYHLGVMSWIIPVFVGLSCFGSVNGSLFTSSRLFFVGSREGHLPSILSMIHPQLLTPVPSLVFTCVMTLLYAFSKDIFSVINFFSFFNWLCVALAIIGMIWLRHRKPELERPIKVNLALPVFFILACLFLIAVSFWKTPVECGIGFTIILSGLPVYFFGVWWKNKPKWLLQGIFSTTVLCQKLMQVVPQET
T1 sequence (P08195 102-630 partner): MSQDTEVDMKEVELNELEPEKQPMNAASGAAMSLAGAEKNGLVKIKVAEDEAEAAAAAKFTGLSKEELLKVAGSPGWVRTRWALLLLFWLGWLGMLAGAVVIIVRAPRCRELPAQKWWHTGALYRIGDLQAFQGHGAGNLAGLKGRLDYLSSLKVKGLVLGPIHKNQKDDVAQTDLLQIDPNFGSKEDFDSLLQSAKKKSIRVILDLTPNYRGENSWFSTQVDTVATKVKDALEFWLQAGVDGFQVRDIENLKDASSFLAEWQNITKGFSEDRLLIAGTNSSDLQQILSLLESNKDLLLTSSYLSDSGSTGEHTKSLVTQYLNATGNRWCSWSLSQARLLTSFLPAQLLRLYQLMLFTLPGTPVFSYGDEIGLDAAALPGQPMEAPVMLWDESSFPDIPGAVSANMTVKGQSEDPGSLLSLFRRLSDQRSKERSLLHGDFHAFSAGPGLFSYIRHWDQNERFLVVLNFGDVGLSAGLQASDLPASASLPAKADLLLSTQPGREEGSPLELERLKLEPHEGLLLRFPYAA

efflux rate of [3H]-gabapentin	SMILES
2.7 fmol/min and 2.7 ± 0.3 fmol/min	N[C@@H](Cc1ccccc1)C(=O)O [Compound 50, L-phenylalanine, reference compound]

same assay, conditions: based on trans-stimulation assay

LAT1 substrate activity (in words)	SMILES
LAT1 substrates	NCc1cccc(C[C@H](N)C(=O)O)c1 [Compound 74]
potentially not a substrate	COC(=O)c1cccc(C[C@@H](N)C(=O)O)c1 [Compound 79-D]
substrates of LAT1	N[C@@H](Cc1cccc(C(=O)OCCO)c1)C(=O)O [Compound 82]
LAT1 substrates	N[C@@H](Cc1cccc(C(=O)O)c1)C(=O)O [Compound 83]
nonsubstrates	N[C@@H](Cc1cccc(CC(=O)O)c1)C(=O)O [Compound 84]

Further lines, the molecule ahead of its results:

SMILES	LAT1 substrate activity (in words)
CC(N)(Cc1ccccc1)C(=O)O (stereo in doubt) [Compound 92-D, α-methyl phenylalanine]	substrates
NCCCC[C@H](N)C(=O)O [Compound 55, L-Lys, reference compound]	none of which were LAT1 substrates
N[C@@H](CCC(=O)O)C(=O)O [Compound 57, L-Glu, reference compound]	none of which were LAT1 substrates
N[C@@H](Cc1cn(Cc2ccccc2)cn1)C(=O)O [Compound 59, benzyl histidine]	substrates
COC(=O)c1cc(C)cc(C[C@H](N)C(=O)O)c1 [Compound 63]	lost activity relative to their parent compounds
Cc1cc(C[C@H](N)C(=O)O)cc(C(=O)O)c1 [Compound 64]	lost activity relative to their parent compounds
CC(C)(C)OC(=O)c1cccc(C[C@H](N)C(=O)O)c1 [Compound 81]	substrates of LAT1
C[C@](N)(Cc1ccccc1)C(=O)O [Compound 92, α-methyl phenylalanine]	substrates
NC(Cc1ccccc1)(Cc1ccccc1)C(=O)O [Compound 93]	inactive
CSCC[C@@](N)(Cc1ccccc1)C(=O)O [Compound 98-D]	lost all activity
N[C@@](Cc1ccccc1)(Cc1c[nH]cn1)C(=O)O [Compound 107]	inactive

system: LAT1; assay: not given; conditions: Xenopus laevis oocytes; cited from earlier work

SMILES	Km
N[C@@H](Cc1ccccc1)C(=O)O [Compound 50, L-phenylalanine, reference compound]	14.2 µM
N[C@H](Cc1ccccc1)C(=O)O [Compound 50-D, D-Phe]	121 µM

target: T1, human LAT1; assay: cis-inhibition assay: inhibition of [3H]-gabapentin uptake into HEK-hLAT1 cells; assay type: cell-based; conditions: L vs D isomer

selectivity for the L isomers in cis-inhibition assay	SMILES
> 20 fold	CC[C@H](C)[C@H](N)C(=O)O [Compound 47, L-Ile]
> 20 fold	CC(C)[C@H](N)C(=O)O [Compound 49, L-Val]
> 20 fold	N[C@@H](Cc1c[nH]cn1)C(=O)O [Compound 53, L-histidine]

same assay, conditions: cis-inhibition

LAT1 ligand potency / affinity (in words)	SMILES
the most potent ligands	N[C@@H](Cc1cccc(Cc2ccccc2)c1)C(=O)O [Compound 69]
the most potent ligands	N[C@@H](Cc1cccc(-c2ccccc2)c1)C(=O)O [Compound 70]
